Experimental data reported in ChEMBL document CHEMBL2074339, “The use of a dendrimer-propranolol prodrug to bypass efflux transporters and enhance oral bioavailability” (J Control Release, 2004).

What was measured:
[1] = target: T1, ATP-dependent translocase ABCB1 (Homo sapiens, UniProt P08183); assay: TP_TRANSPORTER: transepithelial transport of propranolol in Caco2 cells; assay type: functional, cell-based; conditions: caco-2
[2] = target: T1, ATP-dependent translocase ABCB1; assay: TP_TRANSPORTER: transepithelial transport in Caco2 cells; assay type: functional, cell-based; conditions: caco-2

T1 sequence (P08183 whole entry): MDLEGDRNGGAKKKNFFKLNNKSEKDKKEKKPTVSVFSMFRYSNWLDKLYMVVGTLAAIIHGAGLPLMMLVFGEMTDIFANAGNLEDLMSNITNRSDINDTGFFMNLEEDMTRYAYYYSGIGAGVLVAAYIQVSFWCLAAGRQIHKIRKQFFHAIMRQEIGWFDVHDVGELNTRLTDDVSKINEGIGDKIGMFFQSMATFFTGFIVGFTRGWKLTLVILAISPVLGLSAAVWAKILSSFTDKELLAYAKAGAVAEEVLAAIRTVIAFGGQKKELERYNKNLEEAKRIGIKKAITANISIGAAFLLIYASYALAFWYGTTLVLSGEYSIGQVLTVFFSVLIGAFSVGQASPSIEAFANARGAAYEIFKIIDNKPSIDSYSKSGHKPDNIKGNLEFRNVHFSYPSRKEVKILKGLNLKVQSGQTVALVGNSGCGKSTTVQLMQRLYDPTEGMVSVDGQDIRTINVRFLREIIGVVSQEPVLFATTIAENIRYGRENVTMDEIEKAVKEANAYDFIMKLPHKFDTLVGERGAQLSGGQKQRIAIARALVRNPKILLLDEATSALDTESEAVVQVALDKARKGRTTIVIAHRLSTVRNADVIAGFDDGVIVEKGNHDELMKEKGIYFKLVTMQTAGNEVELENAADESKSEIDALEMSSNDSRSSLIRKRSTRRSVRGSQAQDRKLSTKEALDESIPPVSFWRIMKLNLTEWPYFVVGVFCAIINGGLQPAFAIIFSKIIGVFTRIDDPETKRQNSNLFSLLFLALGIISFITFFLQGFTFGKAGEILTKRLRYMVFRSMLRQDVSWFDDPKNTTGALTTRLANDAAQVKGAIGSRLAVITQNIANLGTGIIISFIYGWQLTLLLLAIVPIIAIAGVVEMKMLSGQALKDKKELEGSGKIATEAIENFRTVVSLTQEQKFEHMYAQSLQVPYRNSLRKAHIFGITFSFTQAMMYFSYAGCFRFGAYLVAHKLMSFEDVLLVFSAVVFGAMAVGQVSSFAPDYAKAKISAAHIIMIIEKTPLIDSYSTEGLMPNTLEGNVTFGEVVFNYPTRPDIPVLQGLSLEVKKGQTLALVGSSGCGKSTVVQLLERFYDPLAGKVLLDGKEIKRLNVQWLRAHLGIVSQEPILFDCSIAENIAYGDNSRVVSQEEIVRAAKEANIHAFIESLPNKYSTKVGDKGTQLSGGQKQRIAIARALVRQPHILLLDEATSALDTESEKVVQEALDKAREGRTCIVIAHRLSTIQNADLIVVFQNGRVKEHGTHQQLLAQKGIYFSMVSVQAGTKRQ

Molecule | Activity [1] | Activity [2]
G3 PAMAM DENDRIMER | is not an inhibitor [-] | –
CC(C)NCC(O)COc1cccc2ccccc12 (configuration not stated) [PROPRANOLOL] | – | substrate [+]
